Reference: patent US20240165196A1, “Beta-Lactamase Inhibitors” (VIB VZW, priority 2021, published 2024)

Legend:
Assay in all cases: MIC of ampicillin without/with 30 μg/mL TEM3.2, clinical isolates
Assay type in all cases: cell-based
[1] = test system: E. coli clinical isolate, β-lactamase SHV-12; TEM-ESBL; conditions: isolate 2017 Germany, RTI, Bronchi
Description: (§1) Moreover, the core sequence of peptide TEM3.0 also occurs in the structurally related SHV β-lactamase (FIG. 2E). Although the C-terminal extension residues H and N have been replaced with physicochemically similar R and Q, respectively (FIG. 2H). […] To quantify the synergy between these four peptides and penicillin G, we performed a so-called checkerboard assay, which allows to compare the activity of two test compounds co-incubated (here peptide and a beta-lactam antibiotic), to their individual activities in isolation. The result from the assay is quantified as the Fractional Inhibitory Concentration Index (FICI), and it is generally accepted that values below 0.5 indicate synergistic effects between the compounds. As a control, we generated a peptide using the same design, but based on a previously identified APR from the β-galactosidase enzyme (BGAL)^16 from E. coli (APR=SVIIWSL, peptide sequence=[…]) that has a MIC value>100 μg/mL on E. coli strain UZ_TEM104. We evaluated the synergy of the peptides with penicillin G in clinical E. coli isolates carrying the TEM (FIG. 2I) or SHV enzymes (FIG. 2J). […] As a further control, we also performed a checkerboard assay with an E. coli strain that was resistant to the aminoglycoside kanamycin and observed no synergy between this unrelated antibiotic and our peptides (FIG. 2L), in line with the notion that we are inhibiting a beta-lactamase but not the aminoglycoside degrading enzyme. […] The list of strains included some that harbored only TEM or SHV, but others contained additional Ambler Class A (CTX-M or OXA) or Class B (VIM and NDM) beta-lactamases. […] In contrast, the presence of the NDM-type […], that does have a high affinity for Ampicillin and that is completely distinct in sequence and structure from TEM and SHV, seemed to completely prevent the effect of the peptide on the beta-lactam sensitivity of the strains in which it occurred (see also further). As it appeared that TEM3.2 had activity in most isolates tested, we decided to focus further analysis on this peptide. Furthermore, we tested the performance of the TEM3.2 peptide in a checkerboard assay on strains carrying ESBL mutants of TEM, i.e. extended-spectrum mutations that cluster around the active site of the enzyme, and not in the aggregation prone region targeted by the peptide, and as expected from our mode of action, we observed synergy with ampicillin on these strains (FIG. 2M).
(§2) Determination of MIC values using the broth microdilution in the 96-well plate (BD Biosciences, Belgium) according to the EUCAST guideline, which was performed in 96-well polystyrene flat bottom microtiter plates (BD Biosciences). Briefly, a single colony was inoculated into 5 mL Difco™ Mueller Hinton Broth (BD Biosciences Ref 275730) and grown to the end-exponential growth phase in a shaking incubator at 37° C. Cultures were subsequently diluted to an MacFarland (0.5 optical density) then the culture was diluted to reach 10^6 CFU/mL in fresh MHB medium. 50 μl of different concentration of peptides ranging from 128 to 2 μg/mL were serially diluted to the sterile 96-well plate in MHB. 50 μL of the diluted bacteria in MHB were pipetted into 96-well plates to reach the final volume of 100 μL. The bacteria grown with the maximum concentration of carrier and medium were considered as positive and negative controls, respectively. The plates were statically incubated overnight at 37° C. to allow bacterial growth. OD was measured at 590 nm a multipurpose ultraviolet-visible plate reader, and the absorbance of the growth bacteria was measured using absorbance reader. Bacterial growth was also visually inspected and agreed well with the OD reading.

[2] = test system: E. coli clinical isolate, β-lactamase TEM-1; conditions: isolates year NA, country NA
Description: as §1, §2

[3] = test system: E. coli clinical isolate, β-lactamase TEM-ESBL; CTX-M-15; NDM-19; conditions: isolate 2017 Qatar, IAI, Abscess
Description: as §1, §2

[4] = test system: E. coli clinical isolate, β-lactamase TEM-ESBL
Description: as §1, §2

[5] = test system: E. coli clinical isolate, β-lactamase TEM-ESBL; CTX-M-24; OXA-48; conditions: isolate 2017 Turkey, IAI, Abscess
Description: as §1, §2

[6] = test system: E. coli clinical isolate, β-lactamase SHV-2; CTX-M-55; VIM-1; conditions: isolate 2017 Turkey, UTI, Urine
Description: as §1, §2

[7] = test system: E. coli clinical isolate, β-lactamase TEM-ESBL; CTX-M-27; conditions: isolate 2017 Romania, UTI, Urine
Description: as §1, §2

[8] = test system: E. coli clinical isolate, β-lactamase TEM-ESBL; CTX-M-TYPE; conditions: isolate 2017 France, IAI, Peritoneal Fluid
Description: as §1, §2

[9] = test system: E. coli clinical isolate, β-lactamase TEM-ESBL; CTX-M-15; NDM-5; conditions: isolate 2017 Qatar, UTI, Urine
Description: as §1, §2

## Ac-RLTAFLHNRRPRLTAFLRQRR-NH2 [TEM3.2]
[1]
  MIC ampicillin + 30 μg/mL TEM-3.2: 0.12
[2]
  MIC ampicillin + 30 μg/mL TEM-3.2: ≤0.06
[3]
  MIC ampicillin + 30 μg/mL TEM-3.2: >64
[4]; isolate 2016 Germany, UTI, Urine
  MIC ampicillin + 30 μg/mL TEM-3.2: ≤0.06
[4]; isolate 2016 Lithuania, UTI, Urine
  MIC ampicillin + 30 μg/mL TEM-3.2: 1
[4]; isolate 2017 Israel, UTI, Urine
  MIC ampicillin + 30 μg/mL TEM-3.2: ≤0.06
[4]; isolate 2017 Portugal, RTI, Bronchi
  MIC ampicillin + 30 μg/mL TEM-3.2: 0.5
[4]; isolates 2016 South Africa, IAI, Peritoneal Fluid
  MIC ampicillin + 30 μg/mL TEM-3.2: ≤0.06
[5]
  MIC ampicillin + 30 μg/mL TEM-3.2: ≤0.06
[6]
  MIC ampicillin + 30 μg/mL TEM-3.2: ≤0.06
[7]
  MIC ampicillin + 30 μg/mL TEM-3.2: ≤0.06
[8]
  MIC ampicillin + 30 μg/mL TEM-3.2: ≤0.06
[9]
  MIC ampicillin + 30 μg/mL TEM-3.2: >64
